This passage reports MIC90 results from ChEMBL document CHEMBL5335768, “Expanding the knowledge around antitubercular 5-(2-aminothiazol-4-yl)isoxazole-3-carboxamides: Hit-to-lead optimization and release of a novel antitubercular chemotype via scaffold derivatization” (Eur J Med Chem, 2023).

Assay [1] has as its system Mycobacterium tuberculosis. Kind of assay: Antitubercular activity against STR/INH/RIF/EMB/ETH-resistant Mycobacterium tuberculosis IC1 assessed as inhibition of bacterial growth measured after 3 weeks by broth microdilution method. Type of assay: functional. The conditions noted are these: IC1, 504 h.
Assay [2] deals with Mycobacterium tuberculosis. The assay can be described thus: microbe, parasite or virus in culture. The conditions noted are these: IC2, 504 h.

On to `NNC(=O)c1ccncc1` [ISONIAZID], for which the MIC90 in assay [1] and in assay [2] was over 0.2 µg/mL in each case.
